From patent US20220227758A1, “IMIDAZOPYRIDINE COMPOUND AS IRAK4 INHIBITOR” (MEDSHINE DISCOVERY INC., priority 2019, published 2022)

How the values were obtained:
[1] = target: T1, human IRAK4 (Homo sapiens, UniProt Q9NWZ3); test: 33P-labeled kinase activity assay (in vitro enzymatic activity evaluation); type: biochemical
T1 construct: purchased Reaction Biology Corp
T1 sequence (Q9NWZ3 1-460): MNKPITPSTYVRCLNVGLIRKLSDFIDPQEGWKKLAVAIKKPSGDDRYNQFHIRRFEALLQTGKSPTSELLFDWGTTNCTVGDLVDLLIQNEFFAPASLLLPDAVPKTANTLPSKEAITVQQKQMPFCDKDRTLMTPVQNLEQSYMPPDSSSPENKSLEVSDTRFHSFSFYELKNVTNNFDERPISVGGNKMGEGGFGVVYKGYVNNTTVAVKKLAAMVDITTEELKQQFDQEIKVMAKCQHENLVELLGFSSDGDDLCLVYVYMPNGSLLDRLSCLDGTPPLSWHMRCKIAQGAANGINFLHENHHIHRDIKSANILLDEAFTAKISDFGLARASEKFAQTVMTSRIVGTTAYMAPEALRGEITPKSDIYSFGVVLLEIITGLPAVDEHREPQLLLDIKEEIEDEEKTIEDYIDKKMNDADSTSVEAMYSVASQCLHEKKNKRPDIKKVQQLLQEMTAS
Method: The inhibitory activity of the test compounds against human IRAK4 was evaluated by determining IC50 values in a ^33P-labeled kinase activity assay (Reaction Biology Corp).
Buffer conditions: 20 mM Hepes (pH 7.5), 10 mM MgCl2, 1 mM EGTA, 0.02% Brij35, 0.02 mg/mL BSA, 0.1 mM Na3VO4, 2 mM DTT, 1% DMSO.
Procedures: The test compound was dissolved in DMSO at room temperature to prepare a 10 mM solution for later use. The substrates were dissolved in freshly formulated buffers. The kinase was added, and mixture was stirred homogeneously. The DMSO solution containing the test compound was added to the above mixed reaction system by an acoustic technique (Echo 550). After 15 minutes of incubation, the reaction was started by adding ^33P-ATP. After 120 minutes of reaction at room temperature, the resulting solution was loaded on P81 ion exchange chromatography paper sheet (Whatman #3698-915). After repeated washings with 0.75% phosphoric acid solution, the radioactivity of the phosphorylated substrate residue on the paper sheet was measured. The kinase activity data are shown as a comparison of the kinase activity of the test compound and the kinase activity of the blank (DMSO only) and a curve was fitted using Prism4 software (GraphPad) to give IC50 values, with the experimental results shown in Table 5.

[2] = tested on: THP-1 cells; test: cells; conditions: Homo sapiens, THP-1, 18 h, read-out: THP-1/IC50
Method: TNF-α ELISA in THP-1 cells
THP-1 human acute […] leukemia cells were purchased from ATCC (Cat # TIB-202) and incubated in a5% CO2 incubator at 37° C. The medium was RPMI1640 (Gibco, Cat # 22400-105), the supplementary was 10% FBS (Gibco, Cat # 10091148); 1% PenStrep (Gibco, Cat # 15140); 0.05 mM 2-mercaptoethanol (Sigma, Cat # M6250).
TNF-α content in the cell culture supernatant was measured by a TNF-α Elisa kit. TNF-α was produced by stimulation of THP-1 cells with 150 ng/mL LPS (Sigma, Cat # L6529). Normal THP-1 cells in logarithmic phase were seeded in 96-well plates (Corning #3599) at a certain concentration (1×10^5/100 μL) and then incubated in an incubator. After two hours, 16.7 μL of test compound of different concentrations (8×final concentration) was added and the mixture was incubated in the incubator. After one hour, 16.7 μL of 1200 ng/mL LPS was added and the mixture was incubated in the incubator. After 18 h, the culture was centrifuged and the probe of the supernatant was collected. The TNF-α content was measured by a TNF-α Elisa kit. Finally, the OD signals (OD450-OD570) were read on an envision plate reader.
The OD450-OD570 signals were converted to percent inhibition.
Inhibition%=(ZPE−sample)/(ZPE−HPE)×100.
“HPE” represents the OD450-OD570 signal value of the control well without LPS-stimulated cells, and “ZPE” represents the OD450-OD570 signal value of the control well with LPS-stimulated cells.
IC50 values for compounds were calculated by XLFit in the Excel.
Equation:y=Bottom+(Top-Bottom)/(1+(IC50/X)^ HillSlope).

[3] = tested on: human B-cell lymphoma OCI-LY10 cells subcutaneous xenograft tumor; test: In vivo pharmacodynamic study in OCI-LY10 subcutaneous xenograft tumor mouse model; conditions: ibrutinib 10 mpk, WX005 50 mpk; for T/C value / TGI value: day 18 after start of administration, WX005 + ibrutinib 50+10 mpk
Method: The purpose of this experiment was to evaluate the efficacy of test drug WX005 on human B-cell lymphoma OCI-LY10 cell subcutaneous xenograft tumors in a CB17 SCID mouse model in vivo.
OCI-LY10 human B cell lymphoma cells, cultured in a 5% CO2 incubator at 37° C.
OCI-LY10 tumor cells were subcultured. 0.2 mL (1×10^7 cells) of OCI-LY10 cells (along with matrigel in a volume ratio of 1:1) was subcutaneously inoculated on the right back of each […], and the mice were administered in groups when the average tumor volume was 167 mm^3. Animals were monitored daily for health and death, and routine examinations include observation of the effect of tumor growth and drug treatment on the daily performance of the animals, such as behavioral activities, food and water intake, weight changes (twice weekly), tumor size (twice weekly for tumor volume), appearance signs, or other abnormal conditions.
The experimental indices were to investigate whether tumor growth was inhibited or delayed or the tumor was cured. The procedures comprised measuring tumor volume (TV), and calculating the tumor inhibiting therapeutic effect TGI (%) or relative tumor proliferation rate T/C (%) of the compound. TV=0.5a×b^2, where a and b represent the long diameter and short diameter of the tumor, respectively.
T/C%=TRTV/CRTV×100% (TRTV: RTV of treatment group; CRTV: RTV of negative control group). Relative tumor volume (RTV) was calculated based on the results of tumor measurement. The calculation formula was: RTV=Vt/V0, wherein Vo was the average tumor volume measured at the time of grouping and administration (i.e., d0), Vt was the average tumor volume at a certain measurement, and the data of TRTV and CRTV were obtained on the same day.

[4] = tested on: lipopolysaccharide (LPS)-induced TNF-α secretion; test: Pharmacodynamic study of LPS-induced TNF-α secretion in SD rats; type: in vivo; conditions: oral
Method: SD rats were orally administered with a solvent, dexamethasone (DEX, 0.5 mg/kg) as positive control, and the test compound, and were intraperitoneally injected with LPS (1 mg/kg) 0.5 hours after the administration. Animals were euthanized with CO2 2 h after LPS injection. Cardiac blood was collected into EDTA-K2 vacutainers, and a part of the anticoagulated blood was centrifuged and the plasma was frozen at −80° C.
Frozen plasma was thawed at room temperature and the concentration of TNF-α in the plasma was measured using ELISA kit.
The experimental data were expressed using mean±SEM, and TNF-α levels were analyzed by One-way ANOVA. Significant differences were considered for p<0.05.

[5] = tested on: collagen-induced arthritis; test: In vivo efficacy assay of collagen-induced mouse arthritis; design: species or system DBA/1 mice; conditions: 100 mg/kg twice daily for 14 days, oral gavage
Method: The purpose of this experiment was to investigate the therapeutic effect of compound WX005 in a mouse model of collagen-induced arthritis.
Animals: male DBA/1 mice aged 6-8 weeks; supplier: Vital River.
Grouping: Among 39 DBA/1 mice, 5 mice were randomly selected as normal controls, and the other 34 were immunized. The day of the first immunization was recorded as Day 0. During modeling, DBA/1 mice were anesthetized with isoflurane and sensitized by injecting 50 microliters of prepared collagen emulsion (containing 200 micrograms of CII) subcutaneously on the tail (2-3 cm from the root of the tail). On Day 23, 100 microliters of 0.3 mg/mL LPS solution (containing 30 micrograms of LPS) was intraperitoneally injected. Mice in the normal group were not immunized.
On Day 26, when the average clinical score reached about 0.8, 24 mice with clinical scores of 0-1 were selected, and the mice were randomly grouped into 3 treatment groups of 8 according to the body weight and the score. […]
Clinical observation: the general health and body weight changes of DBA/1 mice were observed daily from 7 days before immunization to Day 23 after immunization (recorded once weekly). After Day 23, mice were observed daily for health, morbidity, and weight changes (recorded at least three times a week) until the end of assay. […]

Row | Structure (SMILES) | IC50 [1] [nM] | also measured
1 | CC(C)(O)CCc1cn2cc(NC(=O)c3cccc(C(F)(F)F)n3)c(N3CCC(C)(O)CC3)cc2n1 [WX015] | 0.7 | IC50 [2]: 201 nM
2 | CC(C)(O)CCc1cn2cc(NC(=O)c3cccc(C(F)(F)F)n3)c(N3CCCCC3)cc2n1 [WX003] | 1.2 | 
3 | CC(C)(O)CCc1cn2cc(NC(=O)c3cccc(C(F)(F)F)n3)c(C(C)(C)O)cc2n1 [WX002] | 0.4 | IC50 [2]: 54 nM
4 | CC(C)(O)CCc1cn2cc(NC(=O)c3cccc(C(F)(F)F)n3)c(C3CC3)cc2n1 [WX013] | 3.6 | 
5 | CC(C)(O)CCc1cn2cc(NC(=O)c3cccc(C(F)(F)F)n3)c(N3CCC(CN)CC3)cc2n1 [WX017] | 1.3 | 
6 | CCOc1cc2nc(CCC(C)(C)O)cn2cc1NC(=O)c1cccc(C(F)(F)F)n1 [WX014] | 1.7 | 
7 | CS(=O)(=O)CCc1cn2cc(NC(=O)c3cccc(C(F)(F)F)n3)c(N3CCC(O)CC3)cc2n1 [WX023] | 1.3 | 
8 | C=CC(=O)N1CCC[C@@H](n2nc(-c3ccc(Oc4ccccc4)cc3)c3c(N)ncnc32)C1 [ibrutinib, reference compound] |  | T/C value [3]: 39%; TGI value [3]: 85%
9 | CC(C)(O)CCc1cn2cc(NC(=O)c3cccc(C(F)(F)F)n3)c(N3CCC(C(N)=O)CC3)cc2n1 [WX016] | 1.2 | IC50 [2]: 181 nM
10 | NC(=O)C1CCN(c2cc3nc(CCC(=O)O)cn3cc2NC(=O)c2cccc(C(F)(F)F)n2)CC1 [WX019] | 19.4 | 
11 | CC(C)(O)CCc1cn2cc(NC(=O)c3cccc(C(F)(F)F)n3)c(N3CCC(O)CC3)cc2n1 [WX005] | 1.3 | IC50 [2]: 114 nM; inhibitory effect on LPS-induced TNF-α secretion (plasma TNF-α) ([4]; LPS 1 mg/kg i.p. 0.5 h after administration, plasma 2 h after LPS): significant inhibitory effect; potency on LPS-induced TNF-α secretion compared with dexamethasone ([4]; WX005 30 mpk vs dexamethasone (DEX) 0.5 mpk): potency equivalent to that of dexamethasone; dose-response of inhibition of LPS-induced TNF-α secretion ([4]; doses 3 mpk, 10 mpk, 30 mpk): clear dose-response relationship; tolerability (body weight, abnormality) in tumor-bearing mice ([3]; 18 days of treatment): good tolerability in animals; T/C value [3]: 53%; TGI value [3]: 66%; body weight of the mice [5]: increased steadily; clinical score of arthritis (efficacy) [5]: excellent efficacy
12 | NCC1CCN(c2cc3nc(CCC(=O)O)cn3cc2NC(=O)c2cccc(C(F)(F)F)n2)CC1 [WX020] | 20.5 | 
13 | O=C(O)CCc1cn2cc(NC(=O)c3cccc(C(F)(F)F)n3)c(N3CCC(CO)CC3)cc2n1 [WX021] | 7.1 | 
14 | CC(C)(O)CCc1cn2cc(NC(=O)c3cccc(C(F)(F)F)n3)c(N3CCNCC3)cc2n1 [WX008] | 1.5 | 
15 | CC(C)(O)CCc1cn2cc(NC(=O)c3cccc(C(F)(F)F)n3)c(N3CCC(CO)CC3)cc2n1 [WX007] | 0.9 | 
16 | CC(C)(O)CCc1cn2cc(NC(=O)c3cccc(C(F)(F)F)n3)c(N3CCOCC3)cc2n1 [WX001] | 2.2 | 
17 | CC1(O)CCN(c2cc3nc(CCS(C)(=O)=O)cn3cc2NC(=O)c2cccc(C(F)(F)F)n2)CC1 [WX025] | 0.5 | 
18 | CC(C)(O)CCc1cn2cc(NC(=O)c3cccc(C(F)(F)F)n3)c(N3CCCC(O)C3)cc2n1 (stereo not shown) [WX006] | 3.8 | 
19 | COC(=O)N1CCN(c2cc3nc(CCC(C)(C)O)cn3cc2NC(=O)c2cccc(C(F)(F)F)n2)CC1 [WX010] | 4.6 | 
20 | CC1(O)CCN(c2cc3nc(CCC(=O)O)cn3cc2NC(=O)c2cccc(C(F)(F)F)n2)CC1 [WX018] | 9.8 | 
21 | CC(=O)N1CCN(c2cc3nc(CCC(C)(C)O)cn3cc2NC(=O)c2cccc(C(F)(F)F)n2)CC1 [WX004] | 4.6 | 
